This passage reports EC50 results from patent publication US20240308978A1, “COMPOUNDS AND COMPOSITIONS FOR TREATING CONDITIONS ASSOCIATED WITH STING ACTIVITY” (IFM Due, Inc., priority 2021, published 2024).

SMILES strings stand for the structures.

The target in the first assay is T1, hSTING (Homo sapiens, UniProt Q86WV6, G230A/H232R/R293Q/R71H).
T1 construct: host or cells: THP1-Dual KO-IFNAR2 cells
T1 sequence (Q86WV6 whole entry R71H/G230A/H232R/R293Q): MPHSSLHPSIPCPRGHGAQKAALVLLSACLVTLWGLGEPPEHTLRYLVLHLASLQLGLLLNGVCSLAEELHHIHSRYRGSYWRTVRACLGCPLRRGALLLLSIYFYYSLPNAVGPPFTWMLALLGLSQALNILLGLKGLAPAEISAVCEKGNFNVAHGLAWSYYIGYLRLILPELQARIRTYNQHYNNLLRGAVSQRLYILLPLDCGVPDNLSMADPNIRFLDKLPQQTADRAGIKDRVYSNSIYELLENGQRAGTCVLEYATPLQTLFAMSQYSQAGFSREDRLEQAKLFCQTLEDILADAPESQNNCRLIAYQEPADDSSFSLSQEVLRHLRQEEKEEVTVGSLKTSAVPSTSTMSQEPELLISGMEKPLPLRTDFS
Kind of assay: STING reporter assay (luciferase) in THP1-Dual KO-IFNAR2 cells stimulated with 2′3′cGAMP. The class given is cell-based. The conditions noted are these: 15 μM 2′3′cGAMP transfected, 24 h, class symbols. On the procedure: STING pathway activation by the compounds described herein was measured using THP1-Dual™ cells (KO-IFNAR2).
THP1-Dual™ KO-IFNAR2 Cells (obtained from invivogen) were maintained in RPMI, 10% FCS, 5 ml P/S, 2 mM L-glut, 10 mM Hepes, and 1 mM sodium pyruvate. Compounds were spotted in empty 384 well tissue culture plates (Greiner 781182) by Echo for a final concentration of 0.0017-100 μM. Cells were plated into the TC plates at 40 μL per well, 2×10E6 cells/mL. For activation with STING ligand, 2′3′cGAMP (MW 718.38, obtained from Invivogen), was prepared in Optimem media.
The following solutions were prepared for each 1×384 plate: • Solution A: 2 mL Optimem with one of the following stimuli: • 60 μL of 10 mM 2′3′cGAMP→150 μM stock • Solution B: 2 mL Optimem with 60 μL Lipofectamine 2000→Incubate 5 min at RT
2 mL of solution A and 2 ml Solution B was mixed and incubated for 20 min at room temperature (RT). 20 μL of transfection solution (A+B) was added on top of the plated cells, with a final 2′3′cGAMP concentration of 15 μM. The plates were then centrifuged immediately at 340 g for 1 minute, after which they were incubated at 37° C., 5% CO2,>98% humidity for 24 h. Luciferase reporter activity was then measured. EC50 values were calculated by using standard methods known in the art.
Luciferase reporter assay: 10 μL of supernatant from the assay was transferred to white 384-plate with flat bottom and squared wells. One pouch of QUANTI-Luc™ Plus was dissolved in 25 mL of water. 100 μL of QLC Stabilizer per 25 mL of QUANTI-Luc™ Plus solution was added. 50 μL of QUANTI-Luc™ Plus/QLC solution per well was then added. Luminescence was measured on a Platereader (e.g., Spectramax I3X (Molecular Devices GF3637001)).
Luciferase reporter activity was then measured. EC50 values were calculated by using standard methods known in the art.
As usually defined, the EC50 is the concentration giving half of the maximal effect. The low end stands for greater potency, the high end for weaker potency. `O=C(Nc1c[nH]c2cc(F)c(F)cc12)N[C@H]1CC[C@H](OC2CC(F)(F)C2)CC1` [Compound 101, 1-(5,6-difluoro-1H-indol-3-yl)-3-((1r,4r)-4-(3,3-difluorocyclobutoxy)cyclohexyl)urea] yielded a concentration for a half-maximal effect (EC50) of 1000 to 5000 nM. Same read-out and setting: the same measure for `O=C(Nc1c[nH]c2ccc(Cl)cc12)N[C@H]1CC[C@@H](N2CCC(F)(F)CC2)CC1` [Compound 102, 1-(5-chloro-1H-indol-3-yl)-3-((1s,4s)-4-(4,4-difluoropiperidin-1-yl)cyclohexyl)urea]: 5000 to 100000 nM; for `O=C(Nc1c[nH]c2ccc(Cl)cc12)N[C@H]1CC[C@H](N2CCC(F)(F)CC2)CC1` [Compound 103, 1-(5-chloro-1H-indol-3-yl)-3-((1r,4r)-4-(4,4-difluoropiperidin-1-yl)cyclohexyl)urea]: 5000 to 100000 nM; for `O=C(Nc1c[nH]c2cc(F)c(F)cc12)NC1CC(OC2CCN(CC(F)(F)F)CC2)C1` (stereo not drawn) [Compound 104, 1-(5,6-difluoro-1H-indol-3-yl)-3-(3-((1-(2,2,2-trifluoroethyl)piperidin-4-yl)oxy)cyclobutyl)urea]: 1000 to 5000 nM. On to `O=C(Nc1c[nH]c2ccc(Cl)cc12)NC1CCN(c2ccc(C(F)(F)F)cn2)CC1` [Compound 105, 1-(5-chloro-1H-indol-3-yl)-3-(1-(5-(trifluoromethyl)pyridin-2-yl)piperidin-4-yl)urea], for which the concentration for a half-maximal effect (EC50) is 200 to 1000 nM. On to `O=C(Nc1c[nH]c2ccc(Cl)cc12)NC1CCN(Cc2ccc(C(F)(F)F)cn2)CC1` [Compound 107, 1-(5-chloro-1H-indol-3-yl)-3-(1-((5-(trifluoromethyl)pyridin-2-yl)methyl)piperidin-4-yl)urea], for which the 50% effective concentration (EC50) is 1000 to 5000 nM.

The compound `O=C(Nc1c[nH]c2ccc(F)cc12)N[C@H]1CC[C@H](Oc2ccc(C(F)(F)F)cn2)CC1` [Compound 108, 1-(5-fluoro-1H-indol-3-yl)-3-((1r,4r)-4-((5-(trifluoromethyl)pyridin-2-yl)oxy)cyclohexyl)urea] had a concentration for a half-maximal effect (EC50) of 200 to 1000 nM. `O=C(Nc1c[nH]c2ccc(F)cc12)N[C@H]1CC[C@@H](Oc2ccc(C(F)(F)F)cn2)CC1` [Compound 109, 1-(5-fluoro-1H-indol-3-yl)-3-((1s,4s)-4-((5-(trifluoromethyl)pyridin-2-yl)oxy)cyclohexyl)urea]: the concentration for a half-maximal effect (EC50) is 200 to 1000 nM. `O=C(Nc1c[nH]c2ccc(Cl)cc12)N[C@H]1C[C@H](Oc2ccc(C(F)(F)F)cn2)C1` [Compound 110, 1-(5-chloro-1H-indol-3-yl)-3-((1r,3r)-3-((5-(trifluoromethyl)pyridin-2-yl)oxy)cyclobutyl)urea] returned an EC50 of 200 to 1000 nM. Take `O=C(Nc1c[nH]c2ccc(Cl)cc12)N[C@H]1C[C@@H](Oc2ccc(C(F)(F)F)cn2)C1` [Compound 111, 1-(5-chloro-1H-indol-3-yl)-3-((1s,3s)-3-((5-(trifluoromethyl)pyridin-2-yl)oxy)cyclobutyl)urea]: the EC50 was 200 to 1000 nM. On the same count and under the same terms, the same measure for `O=C(Nc1c[nH]c2ccc(Cl)cc12)N[C@H]1CC[C@H](Oc2ccc(C(F)(F)F)cn2)CC1` [Compound 112, 1-(5-chloro-1H-indol-3-yl)-3-((1r,4r)-4-((5-(trifluoromethyl)pyridin-2-yl)oxy)cyclohexyl)urea]: 200 to 1000 nM. The compound `O=C(Nc1c[nH]c2ccc(Cl)cc12)N[C@H]1CC[C@@H](Oc2ccc(C(F)(F)F)cn2)CC1` [Compound 113, 1-(5-chloro-1H-indol-3-yl)-3-((1s,4s)-4-((5-(trifluoromethyl)pyridin-2-yl)oxy)cyclohexyl)urea] returned a half-maximal effective concentration (EC50) of 200 to 1000 nM. Take `O=C(Nc1c[nH]c2ncc(F)cc12)N[C@H]1CC[C@@H](Oc2ccc(C(F)(F)F)cn2)CC1` [Compound 115, 1-(5-fluoro-1H-pyrrolo[2,3-b]pyridin-3-yl)-3-((1s,4s)-4-((5-(trifluoromethyl)pyridin-2-yl)oxy)cyclohexyl)urea]: the EC50 lay within 1000 to 5000 nM.

Still in this assay, the particulars now being: 15 μM 2′3′cGAMP transfected, 24 h, numeric bound given instead of a class symbol.
`COCCN1CCC(O[C@H]2CC[C@H](NC(=O)Nc3c[nH]c4ccc(Cl)cc34)CC2)CC1` [Compound 106, 1-(5-chloro-1H-indol-3-yl)-3-((1r,4r)-4-((1-(2-methoxyethyl)piperidin-4-yl)oxy)cyclohexyl)urea] showed a half-maximal effective concentration (EC50) above 30000 nM. Compound `O=C(Nc1c[nH]c2ncc(F)cc12)N[C@H]1CC[C@H](Oc2ccc(C(F)(F)F)cn2)CC1` [Compound 116, 1-(5-fluoro-1H-pyrrolo[2,3-b]pyridin-3-yl)-3-((1r,4r)-4-((5-(trifluoromethyl)pyridin-2-yl)oxy)cyclohexyl)urea] displayed a concentration giving a half-maximal response (EC50) above 30000 nM.
